How the values were obtained:
[1] = Microsomal stability, rat; format: in vitro ADME; details: rat liver microsomes, 3 μM compound, 37° C.
Procedure: A 10 mM stock solution of compound in DMSO was diluted 1000 fold in a 182 mM phosphate buffer pH 7.4 in a 96 deep well plate (Greiner, Cat no. 780285) and pre-incubated at 37° C.
40 μL of deionised water was added to a well of a polypropylene Matrix 2D barcode labelled storage tube (Thermo Scientific) and pre-incubated at 37° C.
A Glucose-6-phosphate-dehydrogenase (G6PDH) working stock solution was prepared in 182 mM phosphate buffer pH7.4 and placed on ice before use. A co-factor containing MgCl2, glucose-6-phosphate and NADP+ was prepared in deionised water and placed on ice before use.
A final working solution containing liver microsomes (Xenotech) of a species of interest (human, mouse, rat, dog), previously described G6PDH and co-factors was prepared and this mix was incubated for no longer than 20 minutes at room temperature.
30 μL of the pre-heated compound dilution was added to 40 μL of pre-heated water in the Matrix tubes and 30 μL of the microsomal mix was added. Final reaction concentrations were 3 μM compound, 1 mg microsomes, 0.4 U/mL GDPDH, 3.3 mM MgCl2, 3.3 mM glucose-6-phosphate and 1.3 mM NADP+.
To measure percentage remaining of compound at time zero MeOH or ACN was added (1:1) to the well before adding the microsomal mix. The plates were sealed with Matrix Sepra Seals™ (Matrix, Cat. No. 4464) and shaken for a few seconds ensure complete mixing of all components.
The samples which were not stopped are incubated at 37° C., 300 rpm and after 1 hour of incubation the reaction was stopped with MeOH or ACN (1:1).
After stopping the reaction the samples were mixed and placed on ice for 30 min to precipitate the proteins. The plates were then centrifuged 30 min at 1200 rcf at 4° C. and the supernatant was transferred to a 96 v-bottom PP plate (Greiner, 651201) for analysis on LCMS.
These plates were sealed with sealing mats (MA96RD-04S) of www.kinesis.co.uk and samples were measured at room temperature on LCMS (ZQ 1525 from Waters) under optimized conditions using Quanoptimize to determine the appropriate mass of the parent molecule.
The samples were analyzed on LCMS with a flow rate of 1 mL/min. Solvent A was 15 mM ammonia and solvent B was methanol or acetonitrile, depending on the stop solution used. The samples were run under positive ion spray on an XBridge C18 […] (2.1×30 mm) column, from Waters.
Peak area from the parent compound at time 0 was considered to be 100% remaining. The percentage remaining after 1 hour incubation was calculated from time 0 and was calculated as the percentage remaining. The solubility of the compound in the final test concentration in buffer is inspected by microscope and results are reported.
The data on microsomal stability are expressed as a percentage of the total amount of compound remaining after 60 minutes.

[2] = Caco2 permeability, bi-directional; format: in vitro ADME; details: human; for Papp A→B at 1 h, 10 μM: Caco-2, pH 7.4
Procedure: Bi-directional Caco-2 assays were performed as described below. Caco-2 cells were obtained from European Collection of Cell Cultures (ECACC, cat 86010202) and used after a 21 day cell culture in 24-well Transwell plates (Fisher TKT-545-020B).
2×10^5 cells/well were seeded in plating medium consisting of DMEM+GlutaMAXI+1% NEAA+10% FBS (FetalClone II)+1% Pen/Strep. The medium was changed every 2-3 days.
Test and reference compounds (propranolol and rhodamine 123 or vinblastine, all purchased from Sigma) were prepared in Hanks' Balanced Salt Solution containing 25 mM HEPES (pH 7.4) and added to either the apical (125 μL) or basolateral (600 μL) chambers of the Transwell plate assembly at a concentration of 10 μM with a final DMSO concentration of 0.25%.
50 μM Lucifer Yellow (Sigma) was added to the donor buffer in all wells to assess integrity of the cell layers by monitoring Lucifer Yellow permeation. As Lucifer Yellow (LY) cannot freely permeate lipophilic barriers, a high degree of LY transport indicates poor integrity of the cell layer.
After a 1 hour incubation at 37° C. while shaking at an orbital shaker at 150 rpm, 70 μL aliquots were taken from both apical (A) and basal (B) chambers and added to 100 μLl 50:50 acetonitrile:water solution containing analytical internal standard (0.5 μM carbamazepine) in a 96 well plate.
Lucifer yellow was measured with a Spectramax Gemini XS (Ex 426 nm and Em 538 nm) in a clean 96 well plate containing 150 μL of liquid from basolateral and apical side.
Concentrations of compound in the samples were measured by high performance liquid-chromatography/mass spectroscopy (LC-MS/MS).
The Efflux ratios, as an indication of active efflux from the apical cell surface, were calculated using the ratio of PappB>A/PappA>B.

TNF release = assay: Septic shock model (LPS); format: in vivo, mice; details: for reduction in the TNF release: statistically significant
Procedure: Injection of lipopolysaccharide (LPS) induces a rapid release of soluble tumour necrosis factor (TNF-alpha) into the periphery. This model is used to analyse prospective blockers of TNF release in vivo.
Six BALB/cJ female mice (20 g) per group were treated at the intended dosing once, po. Thirty minutes later, LPS (15 μg/kg; E. Coli serotype 0111:B4) was injected ip. Ninety minutes later, mice were euthanized and blood was collected. Circulating TNF alpha levels were determined using commercially available ELISA kits. Dexamethasone (5 μg/kg) was used as a reference anti-inflammatory compound. Selected compounds are tested at one or multiple doses, e.g. 3 and/or 10 and/or 30 mg/kg, po.

MAB model = MAB model (collagen antibody-induced arthritis); format: in vivo, mice; details: for activity in the MAB model: 30 mg/kg
Procedure: The MAB model allows a rapid assessment of the modulation of an RA-like inflammatory response by therapeutics ([…]. Nature Protocols (2006) 2512-2516: Collagen antibody-induced arthritis). DBA/J mice were injected i.v. with a cocktail of mAbs directed against collagen II. One day later, compound treatment was initiated (vehicle: 10% (v/v) HPβCD). Three days later, mice received an i.p. LPS injection (50 μg/mouse), resulting in a fast onset of inflammation. Compound treatment was continued until 10 days after the mAb injection. Inflammation was read by measuring paw swelling and recording the clinical score of each paw. The cumulative clinical arthritis score of four limbs was presented to show the severity of inflammation. A scoring system is applied to each limb using a scale of 0-4, with 4 being the most severe inflammation. • 0 Symptom free • 1 Mild, but definite redness and swelling of one type of joint such as the ankle or wrist, or apparent redness and swelling limited to individual digits, regardless of the number of affected digits • 2 Moderate redness and swelling of two or more types of joints • 3 Severe redness and swelling of the entire paw including digits • 4 Maximally inflamed limb with involvement of multiple joints

Microsomal stability Rat (%), compound remaining after 60 minutes [1] [%]	Papp A→B at 1 h, 10 μM [2] [×10⁻⁶ cm/s]	SMILES	further results
72.41	36.5	O=C(Nc1nc2cccc(-c3ccc(OCc4cccnc4)cc3)n2n1)C1CC1 [Compound 36, N-(5-(4-(pyridin-3-ylmethoxy)phenyl)-[1,2,4]triazolo[1,5-a]pyridin-2-yl)cyclopropanecarboxamide]	activity in the septic shock model (TNF release; 30 mg/kg): active; activity in the MAB model (MAB model): active
94		O=C(Nc1nc2cccc(-c3ccc(OCc4ccccc4)cc3)n2n1)C1CC1 [Compound 12, N-(5-(4-(benzyloxy)phenyl)-[1,2,4]triazolo[1,5-a]pyridin-2-yl)cyclopropanecarboxamide]	

The next lines start with the molecule.

SMILES	Microsomal stability Rat (%), compound remaining after 60 minutes [1] [%]	Papp A→B at 1 h, 10 μM [2] [×10⁻⁶ cm/s]	further results
O=C(Nc1nc2cccc(-c3ccc(OCc4ccccc4)nc3)n2n1)C1CC1 [Compound 57, Cyclopropanecarboxylic acid [5-(6-benzyloxy-pyridin-3-yl)-[1,2,4]triazolo[1,5-a]pyridin-2-yl]-amide]	34.5		
O=C(Nc1nc2cccc(-c3ccc(OCc4ccc(C(F)(F)F)nc4)cc3)n2n1)C1CC1 [Compound 78, N-(5-(4-((6-(trifluoromethyl)pyridin-3-yl)methoxy)phenyl)-[1,2,4]triazolo[1,5-a]pyridin-2-yl)cyclopropanecarboxamide]	93.85	2	
O=C(Nc1nc2cccc(-c3ccc(OCc4ccccn4)cc3)n2n1)C1CC1 [Compound 37, N-(5-(4-(pyridin-2-ylmethoxy)phenyl)-[1,2,4]triazolo[1,5-a]pyridin-2-yl)cyclopropanecarboxamide]	79.47	23	efflux ratio at 1 h, 10 μM ([2]; Caco-2, pH 7.4, PappB>A/PappA>B): 0.85; activity in the septic shock model (TNF release; 3 mg/kg): active; activity in the MAB model (MAB model): active
O=C(Nc1nc2cccc(-c3ccc(NCc4ccccc4)cc3)n2n1)C1CC1 [Compound 72, N-(5-(4-(benzylamino)phenyl)-[1,2,4]triazolo[1,5-a]pyridin-2-yl)cyclopropanecarboxamide]	2.2	14.9	
N#Cc1ccc(COc2ccc(-c3cccc4nc(NC(=O)C5CC5)nn34)cc2)cn1 [Compound 176, N-(5-(4-((6-cyanopyridin-3-yl)methoxy)phenyl)-[1,2,4]triazolo[1,5-a]pyridin-2-yl)cyclopropanecarboxamide]	90.21	10.6	reduction in the TNF release (TNF release; 3 mg/kg po): > 50%; reduction in the TNF release (TNF release; 10 mg/kg po): > 50%; clinical score, MAB model (MAB model; 10 mg/kg p.o.): reduced the clinical score; inflammation, MAB model (MAB model; 10 mg/kg p.o.): significantly reduced inflammation; clinical score, MAB model (MAB model; 30 mg/kg p.o.): reduced the clinical score with statistical significance; inflammation, MAB model (MAB model; 30 mg/kg p.o.): significantly reduced inflammation
CC(=O)Nc1ccc(COc2ccc(-c3cccc4nc(NC(=O)C5CC5)nn34)cc2)cc1 [Compound 92, N-(5-(4-(4-acetamidobenzyloxy)phenyl)-[1,2,4]triazolo[1,5-a]pyridin-2-yl)cyclopropanecarboxamide]	23.6		
